Data set [1] has as its system PBMC obtained from CMV seropositive donor. Nature of the data set: Cytomegalovirus (CMV) antigen-specific T cell functional assay. In kind it is cell-based, human. The method, then: Peripheral blood mononuclear cells (PBMC) obtained from CMV seropositive donor were thawed and CMV lysate added at 1 μg/mL to 250,000/well PBMC. […] In addition, the anti-PD-1 antibody alone was also tested. An Fc only molecule was also tested as control. Supernatant was collected 48 hours after incubation to assay IL-2 by ELISA.
The multivalent variant CD80 IgSF domain fusion proteins were assessed to test for IL-2 production in the CMV assay substantially as described in Example 22. Exemplary multivalent variant CD80 IgSF domain fusion proteins generated as described above were tested at various concentrations from 100000 pM to 46 pM

Data set [2] relates to huPD-L1/MC38 cells. Nature of the data set: huPD-L1 MC38 tumor model, combination with oxaliplatin. In kind it is in vivo, mouse. As for the experimental part:
To test the anti-tumor activity of the exemplary variant, it was evaluated alone or in combination with the platinum-based chemotherapeutic agent, oxaliplatin, in mice bearing human PD-L1-expressing MC38 tumors, which is a syngeneic mouse colon carcinoma solid tumor model.
The huPD-L1 MC38 cell line was generated by transducing parental MC38 cells with huPD-L1 using viral transduction. Eight-week old female C57/BL6NJ mice (The Jackson Laboratories, Sacramento, Calif.) were implanted subcutaneously with 0.5×10^6 huPD-L1/MC38 cells. For injections, 0.1 mL of cells (0.5×10^6 cells) were injected subcutaneously (SC) in the right mid-flank region.
On day 1, mice were randomized into four groups of 10 mice each, with all mice in each group having about equal mean tumor volumes (˜108 mm^3). Tumors were measured with electronic calipers two-dimensionally twice weekly, beginning on day 7 post-tumor cell implant (referred to as “day 1”). Tumor volume was calculated as length×(width×2)×0.5, with the length being the longer of the two measurements.
As shown, 30% of the mice in the monotherapy group were tumor free by the end of the study.

Data set [3] deals with human PD-L1-transduced MC38 tumor. Nature of the data set: huPD-L1 MC38 tumor model, combination with anti-PD-L1 or anti-CD28 blocking antibodies. It counts as in vivo, mouse. The method, then: Anti-tumor activity was evaluated by serial tumor measurements.
Data set [4] relates to huPD-L1/MC38 cells. Nature of the data set: huPD-L1 MC38 tumor model, combination with anti-CTLA-4. It counts as in vivo, mouse. The method, then:
Eight-week old female C57/BL6NJ mice (The Jackson Laboratories, Sacramento, Calif.) were implanted subcutaneously with 1.5×10^6 huPD-L1/MC38 cells (described in Example 27. On days 8, 11 or 14 post-tumor cell implant mice, the tested molecules were delivered through intraperitoneal (IP) injection as set forth in Table E40. Tumor volume was determined substantially as described in Example 27.

In a further data set the test system is MC38 hPD-L1 tumor cells. Nature of the data set: MC38 hPD-L1 tumor model in C57BL/6 mice. In kind it is in vivo, mouse. The method, then:
Mouse MC38 tumor cells were stably transfected with human PD-L1 (MC38 hPD-L1) and implanted subcutaneously into C57BU6 mice. […] Tumor volume was tracked over time.
70 female C57CL/6 mice, containing similar tumor volumes of approximately 50-51 mm^3, following implantation of MC38 hPD-L1 tumor cells, were staged and divided into 5 treatment groups containing 14 mice each. […] Tumor volumes were measured on days 7, 10, and 12. On day 13, 5 animals were sacrificed for analysis as described in the sections below. Tumor measurements resumed for the remaining 9 mice for each group on days 17, 20 and 27. On days 26, 28, and 31, the animals in Group 1 (Fc isotype control) received an intratumoral injection of 100 μg E35D/M47L CD80-IgV-Fc.
95 female C57BU6 mice were implanted with MC38 hPD-L1 tumor cells. The tumors were staged on Day 7, and 77 mice with similar tumor volumes of approximately 60 mm^3 were divided into 7 treatment groups containing 11 mice each.
On day 49, tumor-free mice, from Groups 3, 4, 6, and 7, and 2 naïve C57CL/6 mice were re-challenged with an additional injection of hPD-L1 MC38 cells. Tumor volumes were measured on days 56, 59, and 63. The results are depicted in FIG. 13. […] At day 59, 8/8 mice from Group 3, 1/2 mice from Group 4, 1/1 mouse from Group 6, and 2/2 mice from Group 7 were tumor-free, and by day 63, all mice in Group 3, Group 4, Group 6, and Group 7 were tumor-free.
75 animals were staged into 3 treatment groups 7 days after implantation with hPD-L1 MC38 tumor cells. […] Tumor volumes were measured every 3-4 days, from Day 11 until Day 35. 3 days after the 1st dose, 2nd dose and 3rd dose, 4 mice from each group were sacrificed for tumor and LN analyses, leaving 13 mice for tumor volume measurements throughout the study period.

A short description of a further data set: Monkey PK model. It counts as in vivo, cynomolgus monkey. To be noted: monkey PK model estimate. The text has this:
A PK model was designed as a two compartment model with intercompartmental distribution (Q) between the first compartment (Central Compartment, V1) and the second compartment (Peripheral Compartment, V2). To capture intraperitoneal (IP) or subcutaneous (SC) injection routes, a third compartment (Depot Compartment) was included with a first-order rate constant (Ka) linking the third compartment uni-directionally to the first compartment. The model also included a constant F to account for loss in the amount of drug available to diffuse from the third compartment (Depot Compartment) to the first compartment (Central Compartment, V1) due to IP or SC injection. The total amount of available drug in the third compartment (Depot Compartment) is described as F×Dose. For intravenous injections (IV), the third compartment (Depot Compartment) was omitted.
For monkeys, linear clearance from the first compartment (Central Compartment, V1) was assumed.

The mark [5] stands for this setting: in combination with oxaliplatin.
The mark [6] stands for this setting: 3 injections of 100 μg on Days 8, 10 and 12.
Setting [7] is: re-challenged on day 49 with hPD-L1 MC38 cells.

As for “H18Y/A26E/E35D/M47L/V68M/A71G/D90G: variant CD80 IgV-Fc (inert), IgV SEQ ID NO:491”, the IL-2 production entry in data set [1] (alone, 48 hours, FIG. 23) is recorded as “showed augmentation of IL-2 production compared to the Fc only control”. In data set [1] (in combination with 50 nM anti-PD-1 antibody (nivolumab)), the IL-2 production result was “greater increase in IL-2 production compared to levels of IL-2 production in the presence of either molecule alone”. Besides, in the data set with huPD-L1/MC38 cells [2] (setting [5]), the tumor free mice was determined as 90% and the “tumor growth over time” value is recorded as “significantly greater reductions in tumor growth over time were observed than with either of the agents alone”. The “mean TGI” value in the data set on huPD-L1/MC38 cells [2] (in combination with oxaliplatin, day 25) is given as around 100%. In addition, in the data set with huPD-L1/MC38 cells [2] (in combination with oxaliplatin, eleven days after start of dosing), the median tumor volume entry was “dropped to zero”. In the data set with huPD-L1/MC38 cells [2] (monotherapy), the antitumor activity entry is “had potent antitumor activity” and the “tumor free mice by the end of the study” value amounted to 30%. In addition, in data set [3] (coadministration with anti-CD28 or anti-PD-L1), the antitumor activity result is “coadministration with either anti-CD28 or anti-PD-L1 reduced the antitumor activity”. Besides, in data set [3] (monotherapy 100 μg IP), the antitumor activity entry is “demonstrated activity superior to PD-L1 blockade alone”. The “tumor growth over time” value with huPD-L1/MC38 cells [4] (in combination with anti-CTLA-4) was “significantly greater reduction in tumor growth over time was observed than with either agent alone”. Moreover, the antitumor activity result in the data set on huPD-L1/MC38 cells [4] (monotherapy) is recorded as “had potent antitumor activity”. The “mice with no detectable tumors (tumor-free) upon completion of the study” value in the data set with MC38 hPD-L1 tumor cells (100 μg on days 7, 9 and 11, 11 mice per group) was found to be 8 mice. In the data set on MC38 hPD-L1 tumor cells (setting [6]), the “tumor-free mice at day 35” value is recorded as 6/13 and the “tumor-free mice on Day 18” value was 6/13. Besides, in the data set with MC38 hPD-L1 tumor cells (i.p. dosing, compared to Fc control or anti-PD-L1), the “tumor growth / tumor volume” value was “greater decrease in the median and mean tumor volumes”. In addition, in the data set on MC38 hPD-L1 tumor cells (setting [7]), the “tumor-free mice after re-challenge, day 59” value is 8/8 and the “tumor-free mice after re-challenge, day 63” value was “tumor-free”. In “Monkey PK model”, the CL was 1.31 mL/h/kg, the F is 66.4%, the Ka was 0.728 day⁻¹ and the Q was 4.37 mL/h/kg. In addition, in the data set “Monkey PK model”, the V1 was 0.0509 L/kg and the V2 is 0.158 L/kg.

The values above are taken from patent US20220177587A1, “METHODS AND USES OF VARIANT CD80 FUSION PROTEINS AND RELATED CONSTRUCTS” (Alpine Immune Sciences, Inc., priority 2018, published 2022).
